Measured values from US20240125803A1, “NOVEL DIAGNOSTIC AND METHOD OF SCREENING THERAPEUTICS FOR FIBROTIC CONDITIONS” (BLR-Bio, LLC, priority 2022, published 2024).

What was measured:
[1] = system: fibrosis-related gene expression; assay: Bleomycin-induced skin fibrosis, 21 days: bulk RNAseq of skin; type: in vivo, C57BL/6J mice; details: d21, n=2
Procedure: 6-week-old C57BL/6J mice were subjected to bleomycin treatment (subcutaneous injection 0.1 U/100 μl/mouse daily) in the presence or absence of BLR200 (intraperitoneal injection 10 μg/kg every other day) for 21 days. For a reversal of fibrosis experiment, BLR200 treatment was started at d14 of bleomycin treatment and continued until d28. Fibrosis was assessed by histological, and unbiased bulk RNAseq, real-time polymerase chain reaction and spatial transcriptomic analyses.
Unbiased cluster analysis of bulk RNAseq data was performed using the Database for Annotation, Visualization and Integrated Discovery (DAVID). Clusters relate to fibrosis with the enrichment score and #of genes greater than 1.0 and 10, respectively, were chosen. n=2.

CCN2 = biological target: T1, CCN2 (Mus musculus, UniProt P29268); details: Makino et al., 2017; cited from earlier work
T1 construct: FG-3019 treatment mitigated Ang II-induced fibrosis, as visualized by a reduction in skin thickness; host or cells: animals of the Ang II-induced dermal fibrosis model (endogenous protein)
T1 sequence (P29268 26-348): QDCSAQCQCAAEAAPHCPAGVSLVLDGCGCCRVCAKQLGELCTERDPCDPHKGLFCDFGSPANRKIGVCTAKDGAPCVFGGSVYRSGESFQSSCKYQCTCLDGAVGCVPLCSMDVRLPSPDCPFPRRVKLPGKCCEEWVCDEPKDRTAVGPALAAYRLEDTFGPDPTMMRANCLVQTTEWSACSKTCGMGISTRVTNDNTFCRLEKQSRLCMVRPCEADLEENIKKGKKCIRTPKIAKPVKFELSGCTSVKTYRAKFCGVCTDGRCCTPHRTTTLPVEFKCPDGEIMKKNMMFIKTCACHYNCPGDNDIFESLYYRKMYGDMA

[2] = system: fibrosis in diabetic nephropathy; details: Riser et al., 2014; cited from earlier work

Bleomycin sulfate
Fold Chance, ADAM10 [1]: 3.68 Fold | Fold Chance, ADAMTS4 [1]: 4.29 Fold | Fold Chance, ADAMTS9 [1]: 4.46 Fold | Fold Chance, ADAMTS20 [1]: 11.3 Fold | Fold Chance, CDH11 [1]: 11.3 Fold | Fold Chance, CITED2 [1]: 6.43 Fold | Fold Chance, ELK1 [1]: 3.69 Fold | Fold Chance, FN1 [1]: 5.12 Fold | Fold Chance, FZD6 [1]: 22.4 Fold | Fold Chance, ITGA6 [1]: 4.46 Fold | Fold Chance, ITGAE [1]: 3.68 Fold | Fold Chance, PECAM1 [1]: 4.29 Fold | Fold Chance, SMAD3 [1]: 3.07 Fold | Fold Chance, TNC [1]: 3.13 Fold | Fold Chance, WNT4 [1]: 3.07 Fold | Fold Chance, WNT7a [1]: 5.81 Fold | Fold Chance, YAP1 (Yes-associated protein 1) [1]: 8.61 Fold

FG-3019: monoclonal antibody targeting CCN2
Ang II-induced fibrosis (skin thickness, collagen deposition, number of αSMA-expressing myofibroblasts) (CCN2): mitigated

B1: rhCCN3: recombinant human CCN3 (protein, UniProt P48745 32-357, looked up)
CCN family member 3: TQRCPPQCPGRCPATPPTCAPGVRAVLDGCSCCLVCARQRGESCSDLEPCDESSGLYCDRSADPSNQTGICTAVEGDNCVFDGVIYRSGEKFQPSCKFQCTCRDGQIGCVPRCQLDVLLPEPNCPAPRKVEVPGECCEKWICGPDEEDSLGGLTLAAYRPEATLGVEVSDSSVNCIEQTTEWTACSKSCGMGFSTRVTNRNRQCEMLKQTRLCMVRPCEQEPEQPTDKKGKKCLRTKKSLKAIHLQFKNCTSLHTYKPRFCGVCSDGRCCTPHNTKTIQAEFQCSPGQIVKKPVMVIGTCTCHTNCPKNNEAFLQELELKTTRGKM
fibrosis in a mouse model of diabetic nephropathy [2]: block and reverse fibrosis
